Experimental data: article PMC6152408, “Interaction of Flavonoids from Woodwardia unigemmata with Bovine Serum Albumin (BSA): Application of Spectroscopic Techniques and Molecular Modeling Methods” (Molecules : A Journal of Synthetic Chemistry and Natural …, 2017)

target: T1, bovine serum albumin (BSA) (Bos taurus, UniProt P02769); assay: intrinsic fluorescence quenching (ex […] nm); format: binding; conditions: 297 K, pH 7.4, 0.05 M Tris-HCl, 0.1 M NaCl, 5 µM BSA; double-log
T1 construct: gene ALB; commercial fatty acid-free native BSA (Shanghai Shenhang Biotechnology), mature, 583 residues, untagged; PDB 4JK4 used only for docking
T1 sequence (P02769 25-607): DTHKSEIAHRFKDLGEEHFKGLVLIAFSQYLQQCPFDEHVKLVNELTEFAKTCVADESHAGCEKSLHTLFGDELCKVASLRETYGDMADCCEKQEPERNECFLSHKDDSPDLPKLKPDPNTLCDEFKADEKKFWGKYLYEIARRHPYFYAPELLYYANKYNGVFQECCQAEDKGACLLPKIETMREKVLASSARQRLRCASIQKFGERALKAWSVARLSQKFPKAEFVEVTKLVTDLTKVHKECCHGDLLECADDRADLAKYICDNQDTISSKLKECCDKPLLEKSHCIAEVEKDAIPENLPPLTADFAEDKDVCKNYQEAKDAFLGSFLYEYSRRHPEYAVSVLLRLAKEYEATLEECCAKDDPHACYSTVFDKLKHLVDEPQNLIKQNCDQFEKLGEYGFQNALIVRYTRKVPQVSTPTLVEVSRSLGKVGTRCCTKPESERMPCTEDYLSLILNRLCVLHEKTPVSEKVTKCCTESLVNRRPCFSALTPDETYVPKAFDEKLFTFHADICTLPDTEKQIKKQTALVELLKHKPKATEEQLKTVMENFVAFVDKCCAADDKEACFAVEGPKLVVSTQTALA

Row | Compound | Kb (×10^5 L.mol^-1)
1 | CC(=O)O[C@@H]1[C@@H](O)[C@@H](O)[C@H](Oc2cc(O)c3c(=O)c(O[C@@H]4O[C@@H](C)[C@H](OC(C)=O)[C@@H](OC(C)=O)[C@H]4O)c(-c4ccc(O)cc4)oc3c2)O[C@H]1C [compound 1, kaempferol3-O-α-L-(3,4-O-di-acetyl) rhamopyranoside-7-O-α-L-(4-O-acetyl) rhamnopyranoside] | 0.41 × 10^5 L·mol^−1
2 | CC(=O)O[C@@H]1[C@@H](OC(C)=O)[C@@H](O)[C@H](Oc2c(-c3ccc(O)cc3)oc3cc(O[C@@H]4O[C@@H](C)[C@H](O)[C@@H](O)[C@H]4O)cc(O)c3c2=O)O[C@H]1C [compound 2, crassirhizomoside B] | 0.57 × 10^5 L·mol^−1
3 | CC(=O)O[C@@H]1[C@@H](O)[C@H](C)O[C@@H](Oc2c(-c3ccc(O)cc3)oc3cc(O[C@@H]4O[C@@H](C)[C@H](O)[C@@H](O)[C@H]4O)cc(O)c3c2=O)[C@@H]1O [compound 4, kaempferol 3-O-α-L-(3-O-acetyl) rhamopyranoside-7-O-α-L-rhamnopyranoside] | 1.06 × 10^5 L·mol^−1
4 | CC(=O)O[C@H]1[C@H](Oc2c(-c3ccc(O)cc3)oc3cc(O[C@@H]4O[C@@H](C)[C@H](O)[C@@H](O)[C@H]4O)cc(O)c3c2=O)O[C@@H](C)[C@H](O)[C@H]1O [compound 5, kaempferol 3-O-α-L-(2-O-acetyl) rhamopyranoside-7-O-α-L-rhamnopyranoside] | 0.96 × 10^5 L·mol^−1
